Data on three compounds can be found in publication PMC9916658, “Design and Synthesis of New Quinazolin-4-one Derivatives with Negative mGlu7 Receptor Modulation Activity and Antipsychotic-Like Properties” (International Journal of Molecular Sciences, 2023).

Data set [1] can be described thus: Pharmacokinetics and brain uptake in mice after i.p. administration. The class given is in vivo, mouse (Albino Swiss). The conditions noted are these: 10 mg/kg i.p.; for AUC(0-t) / Tmax / half-life / Cmax: ip. The procedure:
Compounds were administered to mice at a dose of 10 mg/kg i.p. Plasma and tissue samples were collected at 0.25, 0.50, 1.0, 2.0, 4.0, 6.0, and 24 h. Plasma and tissue samples from all drug-treated animals were thawed at room temperature prior to use. The standard protocol for sample preparation was used: 200 μL of acetonitrile was added to the Eppendorf tubes with 50 μL of studied plasma samples or tissue homogenate. Samples were mixed for 5 min on a mixer at 25 °C and 1400 rpm. The tubes were then centrifuged at 2000× g for 15 min at 4 °C. A total of 180 μL of each supernatant was transferred to a plate well. Finally, each sample was injected into the LC–MS column. Calibration curve serial dilution method: Plasma was spiked with a standard at different concentrations. Acetonitrile was added. After mixing and centrifugation, the supernatant was collected.
Chromatographic conditions. Plasma and tissue samples from all drug-treated animals at selected time points were analyzed using a previously developed nonvalidated LC–MS/MS method. […] The LC–MS analysis was carried out on a Bruker amaZon SL mass spectrometer using the positive/negative ion ESI mode. Chromatographic separation was achieved on an Ascentis Express C18 column (5 cm × 2.1 mm, 2.7 μM, Supelco Technologies) at room temperature with a thermostatted column oven. A gradient elution of eluents A (acetonitrile (LiChrosolv, Reag. Ph Eur) + 0.1% formic acid (Sigma Aldrich, 98–100%)) and B (water + 0.1% formic acid) were used for separation. The flow rate was set at 1 mL/min. The injection volume was 20 μL, and the time of injection was 4 min.
Mass spectrometric conditions. An ion trap mass spectrometer (Bruker amaZon SL, Bruker, Bremen, Germany) was equipped with an electrospray source operating in the positive/negative ion mode. Data were collected and processed using Bruker Quant Analysis (Bruker, Bremen, Germany) software. A quantification of the analytes was performed in the SIM mode.

A further data set has as its target T1, human mGlu4 receptor (Homo sapiens, UniProt Q14833).
T1 construct: expressed in transfected cells; host or cells: T-REx 293 (tetracycline-inducible)
Put plainly: mGlu4 receptor selectivity, cAMP accumulation screening at 10 µM. In kind it is cell-based. The procedure:
The cell lines with the tetracycline-inducible expression of human metabotropic receptors 4, 7, and 8 were described in detail by Chruścicka et al. (mGlu4 receptor NM_000841, mGlu7 receptor NM_000844.2, and mGlu8 receptor NM_000845). Cells were grown under standard cell culture conditions (37 °C, 5% CO2) in DMEM supplemented with 10% tetracycline-free FBS. The expression was induced through the addition of tetracycline to the culture medium at 0.75 μg/mL.
The determination of the intracellular cAMP through homogeneous time-resolved fluorescence (HTRF) was described in detail previously. […] The intracellular concentration of cyclic AMP was measured by means of a cAMP Gi HTRF kit from Cisbio, according to the manufacturer’s instructions. After 1 h of incubation at room temperature, the fluorescence at 620 nm and 665 nm was read (Tecan Infinite M1000). The results were calculated as the 665 nm/620 nm ratio multiplied by 10^4. […] Data were analyzed using GraphPad Prism version 5.04 for Windows (GraphPad Software, San Diego, USA).
Firstly, all compounds were screened at 10 μM using three cell lines expressing the mGlu4/7/8 receptor to evaluate selectivity. […] For compounds that passed the screening procedure, the dose–response curve in the presence of LSP4-2022 in 5 μM was evaluated compared to reference NAM ADX71743. […]

Where [2] appears, read: mouse Albino Swiss, brain, read-out: AUC0-t, brain.
[3] abbreviates: mouse Albino Swiss, plasma, read-out: AUC0-t, plasma.
The mark [4] stands for this setting: Albino Swiss, mouse, plasma and brain, mice, read-out: Tmax (plasma and brain) (converted).
Setting [5] is: mouse Albino Swiss, brain, read-out: T1/2, brain (converted).
[6] abbreviates: mouse Albino Swiss, brain, read-out: Tmax, brain.
Where [7] appears, read: mouse Albino Swiss, plasma, read-out: T1/2, plasma (converted).
[8] abbreviates: mouse Albino Swiss, plasma, read-out: Tmax, plasma.

Like-named read-outs stand apart in the source and are kept apart here.

T1 sequence (Q14833 33-912): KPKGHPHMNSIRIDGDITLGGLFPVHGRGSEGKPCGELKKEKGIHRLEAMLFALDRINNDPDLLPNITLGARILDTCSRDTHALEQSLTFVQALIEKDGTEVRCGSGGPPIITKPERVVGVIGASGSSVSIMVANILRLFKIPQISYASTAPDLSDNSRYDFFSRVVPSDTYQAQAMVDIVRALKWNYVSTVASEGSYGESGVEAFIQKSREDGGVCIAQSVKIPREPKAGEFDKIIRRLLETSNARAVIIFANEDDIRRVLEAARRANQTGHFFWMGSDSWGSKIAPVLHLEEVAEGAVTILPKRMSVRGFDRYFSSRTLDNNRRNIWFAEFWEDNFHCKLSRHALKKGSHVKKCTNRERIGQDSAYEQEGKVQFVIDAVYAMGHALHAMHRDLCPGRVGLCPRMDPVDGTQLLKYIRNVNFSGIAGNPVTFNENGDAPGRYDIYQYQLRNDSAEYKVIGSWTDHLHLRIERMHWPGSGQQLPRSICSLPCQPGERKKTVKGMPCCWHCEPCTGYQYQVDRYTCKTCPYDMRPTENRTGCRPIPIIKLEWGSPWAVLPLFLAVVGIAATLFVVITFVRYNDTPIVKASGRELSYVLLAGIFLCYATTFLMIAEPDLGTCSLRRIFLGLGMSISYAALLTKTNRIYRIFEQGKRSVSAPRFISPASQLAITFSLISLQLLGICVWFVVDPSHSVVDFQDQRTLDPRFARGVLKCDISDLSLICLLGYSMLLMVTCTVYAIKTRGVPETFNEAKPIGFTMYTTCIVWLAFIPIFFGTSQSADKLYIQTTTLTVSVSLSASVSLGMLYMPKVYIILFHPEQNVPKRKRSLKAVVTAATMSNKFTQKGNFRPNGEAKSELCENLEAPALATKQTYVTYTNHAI

Take `CCc1nc2c(o1)CC(c1ccc(C)cc1C)CC2=O` (centres unmarked) [ADX71743, reference compound]: the figures for the AUC(0-t) in data set [1] (setting [2]) and in data set [1] (setting [3]) were 2.27 µM·h and 1.9 µM·h, respectively. Also, the “Cmax, brain” value in data set [1] (mouse Albino Swiss, brain) is 3.38 µM/L.

For `Cn1c(-c2ccccc2Cl)nc2ccc(-c3ccccc3)cc2c1=O` [ALX-065, 2-(2-chlorophenyl)-3-methyl-6-phenylquinazolin-4(3H)-one], the Tmax in data set [1] (setting [4]), in data set [1] (setting [6]) and in data set [1] (setting [8]) was 15 min in each case. Further, the AUC(0-t) stood at 1.32 µM·h in data set [1] (setting [2]) and 1.99 µM·h in data set [1] (setting [3]). The half-life in data set [1] (setting [5]) is 29.4 min; in data set [1] (setting [7]), 78.6 min. Also, in data set [1] (mouse Albino Swiss, plasma), the highest concentration (Cmax) was found to be 2.28 µM. Besides, the “Cmax, brain” value in data set [1] (mouse Albino Swiss, brain) is reported as 1.81 µM/L. Moreover, the “mGlu4 NAM activity” value at human mGlu4 receptor (at 10 µM) turned out to be 19.6%.

Take `COc1cccc(-c2ccc3nc(-c4ccccc4Cl)n(C)c(=O)c3c2)c1OC` [ALX-171, 2-(2-chlorophenyl)-6-(2,3-dimethoxyphenyl)-3-methylquinazolin-4(3H)-one]: the Tmax is 15 min in data set [1] (setting [4]), 15 min in data set [1] (setting [6]) and 30 min in data set [1] (setting [8]). Moreover, the values for the AUC(0-t) in data set [1] (setting [2]) and in data set [1] (setting [3]) were 13.8 µM·h and 13.4 µM·h, respectively. In addition, the half-life was 334 min in data set [1] (setting [5]) and 312 min in data set [1] (setting [7]). Also, the Cmax in data set [1] (mouse Albino Swiss, plasma) came out at 4.46 µM. Also, in data set [1] (mouse Albino Swiss, brain), the “Cmax, brain” value was determined as 2.52 µM/L. The “selectivity over mGlu4” value on human mGlu4 receptor (group III mGlu receptors) is recorded as “selective”.

By Tmax is commonly meant the time from dosing to the highest level. A word on the Cmax: it is the maximum level reached in the sampled fluid or tissue.
